The record followed here is patent publication US20240132431A1, “METHOD FOR ALKYLATING ACIDIC FUNCTIONAL GROUP” (Chugai Seiyaku Kabushiki Kaisha, priority 2021, published 2024).

In this assay the target is T1, Bcl-2 protein (Recombinant Human Bcl-2 Protein) (Homo sapiens, UniProt P10415).
T1 construct: purchased Novus NBP2-34889
Briefly: Binding evaluation of mixture library compounds to Bcl-2 using AS-MS (affinity selection mass spectrometry). To be noted: for ASMS ratio (%) n = 1 / ASMS ratio (%) n = 2: ASMS Ratio(%)=(A−C)/B×100; for ASMS ratio (%) n = 1: replicate n = 1; for ASMS ratio (%) n = 2: replicate n = 2. The method, boiled down:
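ASMS Ratio (%) was calculated as (A−C)/B×100, where A is the protein sample after SEC, B the protein-free sample without SEC and C the protein-free sample after SEC. Each compound was at […] in a 1200-member pool with 20 μM Bcl-2, incubated 1 h at 23° C.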

Setting [1] is: AS-MS, mixture of 1200 compounds, Bcl-2.
[2] abbreviates: AS-MS on the mixture of 1200 library compounds.

T1 sequence (P10415 whole entry): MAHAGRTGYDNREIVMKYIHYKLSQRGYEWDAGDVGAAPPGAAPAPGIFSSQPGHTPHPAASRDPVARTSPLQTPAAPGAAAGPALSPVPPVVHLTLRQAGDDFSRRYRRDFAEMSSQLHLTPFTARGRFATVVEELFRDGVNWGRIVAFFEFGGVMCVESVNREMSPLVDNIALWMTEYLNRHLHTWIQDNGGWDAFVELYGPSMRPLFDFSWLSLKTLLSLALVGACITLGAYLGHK

As to `CCOc1cccc(C#Cc2cc(C(=O)N3CCN(c4ccc(C(=O)NCC56CC7CC(CC(C7)C5)C6)cc4)CC3)cc(C(F)(F)F)c2)c1` [B1A041-01, N-(1-Adamantylmethyl)-4-[4-[3-[2-(3-ethoxyphenyl)ethynyl]-5-(trifluoromethyl)benzoyl]piperazin-1-yl]benzamide], under setting [1], the “ASMS ratio (%) n = 1” value is −2.4% and the “ASMS ratio (%) n = 2” value is on record as −4.0%. Take `CCOc1cccc(-c2cc(CN3CCN(c4ccc(C(=O)N(C)CC56CC7CC(CC(C7)C5)C6)cc4)CC3)cc(C(F)(F)F)c2)c1` [B3A061-01, N-(1-Adamantylmethyl)-4-[4-[[3-(3-ethoxyphenyl)-5-(trifluoromethyl)phenyl]methyl]piperazin-1-yl]-N-methylbenzamide]: under setting [2], the “ASMS ratio (%) n = 2” value came out at 421.3%.

For `CCOc1cccc(-c2ccc(CN3CCN(c4ccc(C(=O)NS(=O)(=O)C(C)(C)C)nn4)CC3)c(CC)c2)c1` [B2L075-01, N-tert-Butylsulfonyl-6-[4-[[4-(3-ethoxyphenyl)-2-ethylphenyl]methyl]piperazin-1-yl]pyridazine-3-carboxamide], the “ASMS ratio (%)” value runs as follows: (n = 1) 0.0%; (n = 2) 33.9%. Consider `CCOc1cncc(C#Cc2cncc(C(=O)N3CCN(c4ccc(C(=O)NCC56CC7CC(CC(C7)C5)C6)nn4)CC3)c2)c1` [B1A010-01, N-(1-Adamantylmethyl)-6-[4-[5-[2-(5-ethoxypyridin-3-yl)ethynyl]pyridine-3-carbonyl]piperazin-1-yl]pyridazine-3-carboxamide], for which the “ASMS ratio (%) n = 2” value under setting [1] amounted to 0.0%. For the compound `CCOc1cncc(-c2cc(C(=O)N3CCN(c4ccc(C(=O)NS(=O)(=O)CC56CC7CC(CC(C7)C5)C6)cc4)CC3)cc(C(C)(C)C)c2)c1` [B2A038-01, N-(1-Adamantylmethylsulfonyl)-4-[4-[3-tert-butyl-5-(5-ethoxypyridin-3-yl)benzoyl]piperazin-1-yl]benzamide], for the setting “AS-MS, mixture library, Bcl-2”, the “ASMS ratio (%) n = 1” value is 1.8% and the “ASMS ratio (%) n = 2” value is −3.5%.

As for `CCOc1cccc(-c2ccc(CN3CCN(c4ccc(C(=O)NS(=O)(=O)CC56CC7CC(CC(C7)C5)C6)nn4)CC3)c3ccccc23)c1` [B2A091-01, N-(1-Adamantylmethylsulfonyl)-6-[4-[[4-(3-ethoxyphenyl)naphthalen-1-yl]methyl]piperazin-1-yl]pyridazine-3-carboxamide], under “AS-MS, mixture library, Bcl-2”, the “ASMS ratio (%) n = 1” value is on record as −2.6% and the “ASMS ratio (%) n = 2” value is reported as 3.8%. Take `CCOc1cncc(-c2csc(CN3CCN(c4ccc(C(=O)Nc5ccc(OC)cc5)cc4)CC3)c2)c1` [B1O068-01, 4-[4-[[4-(5-Ethoxypyridin-3-yl)thiophen-2-yl]methyl]piperazin-1-yl]-N-(4-methoxyphenyl)benzamide]: under setting [2], the “ASMS ratio (%) n = 1” value worked out at 1.9% and the “ASMS ratio (%) n = 2” value was −1.1%. Taken in the same sequence, the figures for `CCOc1cncc(-c2csc(C(=O)N3CCN(c4ccc(C(=O)N(CC)CC)nn4)CC3)c2)c1` [B4J002-01, 6-[4-[4-(5-Ethoxypyridin-3-yl)thiophene-2-carbonyl]piperazin-1-yl]-N,N-diethylpyridazine-3-carboxamide] were −2.7% and 2.1%.

With `CCOc1cncc(-c2ccc(CN3CCN(c4ccc(C(=O)NS(=O)(=O)c5ccc(NCCSc6ccccc6)c(C(F)(F)F)c5)nn4)CC3)cc2F)c1` [B2R078-01, 6-[4-[[4-(5-Ethoxypyridin-3-yl)-3-fluorophenyl]methyl]piperazin-1-yl]-N-[4-(2-phenylsulfanylethylamino)-3-(trifluoromethyl)phenyl]sulfonylpyridazine-3-carboxamide], the “ASMS ratio (%)” value runs as follows: (n = 1) 15.8%; (n = 2) 11.7%. Take `CCOc1cccc(-c2cc(C(=O)N3CCN(c4ccc(C(=O)NS(=O)(=O)c5ccc(NCCSc6ccccc6)c([N+](=O)[O-])c5)cc4)CC3)cc(C(C)(C)C)c2)c1` [B2Q037-01, 4-[4-[3-tert-Butyl-5-(3-ethoxyphenyl)benzoyl]piperazin-1-yl]-N-[3-nitro-4-(2-phenylsulfanylethylamino)phenyl]sulfonylbenzamide]: for the setting “AS-MS, mixture library, Bcl-2”, the “ASMS ratio (%) n = 1” value was 10.9% and the “ASMS ratio (%) n = 2” value was −1.5%.

As for `CCOc1cccc(-c2cnn(-c3cc(C(=O)N4CCN(c5ccc(C(=O)NCC67CC8CC(CC(C8)C6)C7)cc5)CC4)cc(C(F)(F)F)c3)c2)c1` [B1A043-01, N-(1-Adamantylmethyl)-4-[4-[3-[4-(3-ethoxyphenyl)pyrazol-1-yl]-5-(trifluoromethyl)benzoyl]piperazin-1-yl]benzamide], under setting [1], the “ASMS ratio (%) n = 1” value turned out to be 3.8% and the “ASMS ratio (%) n = 2” value is −2.9%. Regarding `CCOc1cccc(C#Cc2ccccc2CN2CCN(c3ccc(C(=O)N(CC)CC)cc3)CC2)c1` [B4J069-01, 4-[4-[[2-[2-(3-Ethoxyphenyl)ethynyl]phenyl]methyl]piperazin-1-yl]-N,N-diethylbenzamide], for the setting “AS-MS, mixture library, Bcl-2”, the “ASMS ratio (%) n = 1” value was determined as 1.8% and the “ASMS ratio (%) n = 2” value is reported as −0.8%. In the case of `CCOc1cccc(-c2cc(CN3CCN(c4ccc(C(=O)N(C)CC56CC7CC(CC(C7)C5)C6)cc4)CC3)cc(OC(F)(F)F)c2)c1` [B3A063-01, N-(1-Adamantylmethyl)-4-[4-[[3-(3-ethoxyphenyl)-5-(trifluoromethoxy)phenyl]methyl]piperazin-1-yl]-N-methylbenzamide], the “ASMS ratio (%) n = 2” value under setting [2] was found to be 390.0%. As for `CCOc1cccc(-c2ccc(C(=O)N3CCN(c4ccc(C(=O)NCC(F)(F)F)cc4)CC3)c3ccccc23)c1` [B1K035-01, 4-[4-[4-(3-Ethoxyphenyl)naphthalene-1-carbonyl]piperazin-1-yl]-N-(2,2,2-trifluoroethyl)benzamide], under setting [1], the “ASMS ratio (%) n = 1” value was found to be 4.8% and the “ASMS ratio (%) n = 2” value was 4.5%. Regarding `CCOc1cncc(-c2cc(OC)c(CN3CCN(c4ccc(C(=O)NS(C)(=O)=O)cc4)CC3)c(OC)c2)c1` [B2I060-01], the “ASMS ratio (%)” value (n = 1) is 0.0% and the “ASMS ratio (%)” value (n = 2) was found to be 0.0%. Turning to `CCOc1cncc(-c2cc(C(=O)N3CCN(c4ccc(C(=O)NS(=O)(=O)c5ccc(NCCSc6ccccc6)c(C(F)(F)F)c5)cc4)CC3)cc(C(F)(F)F)c2)c1` [B2R040-01, 4-[4-[3-(5-Ethoxypyridin-3-yl)-5-(trifluoromethyl)benzoyl]piperazin-1-yl]-N-[4-(2-phenylsulfanylethylamino)-3-(trifluoromethyl)phenyl]sulfonylbenzamide], the “ASMS ratio (%)” value (n = 1) is 2.6% and the “ASMS ratio (%)” value (n = 2) was found to be 0.2%. Turning to `CCOc1cccc(-c2cc(C(=O)N3CCN(c4ccc(C(=O)N(C)CC56CC7CC(CC(C7)C5)C6)cc4)CC3)cc(C(F)(F)F)c2)c1` [B3A039-01, N-(1-Adamantylmethyl)-4-[4-[3-(3-ethoxyphenyl)-5-(trifluoromethyl)benzoyl]piperazin-1-yl]-N-methylbenzamide], under setting [2], the “ASMS ratio (%) n = 1” value is recorded as 3.8% and the “ASMS ratio (%) n = 2” value is reported as 0.0%. Taken in the same sequence, the figures for `CCOc1cncc(-c2ccccc2CCC(=O)N2CCN(c3ccc(C(=O)N(C)CC45CC6CC(CC(C6)C4)C5)cc3)CC2)c1` [B3A034-01, N-(1-Adamantylmethyl)-4-[4-[3-[2-(5-ethoxypyridin-3-yl)phenyl]propanoyl]piperazin-1-yl]-N-methylbenzamide] were 1.3% and −0.6%. For “6-[4-[[4-(5-Ethoxypyridin-3-yl)naphthalen-1-yl]methyl]piperazin-1-yl]-N-propylpyridazine-3-carboxamide [B1M047-01]”, under setting [1], the “ASMS ratio (%) n = 1” value is reported as 1.1% and the “ASMS ratio (%) n = 2” value was determined as 0.3%.

For `CCOc1cncc(-c2cc(CN3CCN(c4ccc(C(=O)N(CC)CC)cc4)CC3)cc(OCC)c2)c1` [B4J056-01], under setting [2], the “ASMS ratio (%) n = 1” value is −1.4% and the “ASMS ratio (%) n = 2” value is recorded as −1.5%. On to `CCOc1cccc(-c2cc(CN3CCN(c4ccc(C(=O)NS(=O)(=O)c5ccc(NCCSc6ccccc6)c(C(F)(F)F)c5)nn4)CC3)cc(OCC)c2)c1` [B2R081-01, 6-[4-[[3-Ethoxy-5-(3-ethoxyphenyl)phenyl]methyl]piperazin-1-yl]-N-[4-(2-phenylsulfanylethylamino)-3-(trifluoromethyl)phenyl]sulfonylpyridazine-3-carboxamide], for which the “ASMS ratio (%)” value is 21.1% (n = 1) and −8.8% (n = 2).

Consider `CCOc1cncc(-c2cc(CN3CCN(c4ccc(C(=O)N(C)CC56CC7CC(CC(C7)C5)C6)nn4)CC3)cc(OC(C)C)c2)c1` [B3A084-01, N-(1-Adamantylmethyl)-6-[4-[[3-(5-ethoxypyridin-3-yl)-5-propan-2-yloxyphenyl]methyl]piperazin-1-yl]-N-methylpyridazine-3-carboxamide], for which, under setting [2], the “ASMS ratio (%) n = 1” value is −17.6% and the “ASMS ratio (%) n = 2” value is reported as −7.4%.

For the compound “4-[4-[3-[2-(5-Ethoxypyridin-3-yl)ethynyl]-5-(trifluoromethyl)benzoyl]piperazin-1-yl]-N-propylbenzamide [B1M019-01]”, under setting [1], the “ASMS ratio (%) n = 1” value is 1.5% and the “ASMS ratio (%) n = 2” value worked out at 0.0%. Turning to `CCOc1cccc(-c2ccc(CN3CCN(c4ccc(C(=O)Nc5ccc(OC)cc5)nn4)CC3)c(OC)c2)c1` [B1O079-01, 6-[4-[[4-(3-Ethoxyphenyl)-2-methoxyphenyl]methyl]piperazin-1-yl]-N-(4-methoxyphenyl)pyridazine-3-carboxamide], under setting [2], the “ASMS ratio (%) n = 1” value stood at 4.5% and the “ASMS ratio (%) n = 2” value is 1.3%.
